Measurements taken from patent US20240158446A1, “CYCLIC COMPOUND HAVING SELECTIVE INHIBITORY ACTION ON KRAS OVER HRAS AND NRAS” (CHUGAI SEIYAKU KABUSHIKI KAISHA, priority 2021, published 2024).
*1 amine or outer side, *2 acyl side, *3 side chain or, on linkers, in order; H or OH if unused. Where a SMILES comes first, the peptide text is derived from it. Bridges are numbered along the chain shown (N, C = ends). [ ]: non-standard residue; d: D form. The star is where a group is joined. hPhe(3-Cl-4-CF3) = N[C@@H](CCc1ccc(C(F)(F)F)c(Cl)c1)C(=O)O; NPrPhe(4-CF3) = CCCN[C@@H](Cc1ccc(C(F)(F)F)cc1)C(=O)O; X7 = CCN([C@H](C(=O)[*:2])C1CCCC1)[*:1]; NMeGly(cPent) = CN[C@H](C(=O)O)C1CCCC1; NEtLeu = CCN[C@@H](CC(C)C)C(=O)O; NMeD = CN[C@@H](CC(=O)O)C(=O)O; NMeL = CN[C@@H](CC(C)C)C(=O)O; NMeNva = CCC[C@H](NC)C(=O)O; Morpholide = C1CN(*)CCO1; Ac4c = NC1(C(=O)O)CCC1; NPrGly = CCCNCC(=O)O; NEtG = CCNCC(=O)O; Sar = CNCC(=O)O

Legend:
[1] = target: GDP-bound NRAS wild-type protein (Homo sapiens, UniProt P01111); test: Binding to NRAS by surface plasmon resonance (SPR), Single Cycle Kinetics; conditions: ratio of KD for GDP-bound NRAS wild-type protein to KD for KRAS, SPR
Sequence of GDP-bound NRAS wild-type protein (P01111 whole entry): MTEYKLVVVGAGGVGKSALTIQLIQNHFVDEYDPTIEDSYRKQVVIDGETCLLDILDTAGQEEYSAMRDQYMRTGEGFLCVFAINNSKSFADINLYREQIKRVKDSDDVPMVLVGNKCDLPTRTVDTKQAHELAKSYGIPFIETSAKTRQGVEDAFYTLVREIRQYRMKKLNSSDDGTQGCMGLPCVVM

[2] = test system: human lung cancer strain NCI-H441; test: cells; conditions: NCI-H441, 96 h, read-out: NCI-H441 IC50 (nM), NCI-H441 cell proliferation, 4 days, CellTiter-Glo;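 also: cell proliferation inhibition after four days measured by CellTiter-Glo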
[3] = target: GDP-bound KRAS wild-type protein (Homo sapiens, UniProt P01116); test: Binding to KRAS by surface plasmon resonance (SPR), Single Cycle Kinetics; conditions: SPR, Single Cycle Kinetics, GDP-bound KRAS wild-type protein; read-out: KRAS KD
Sequence of GDP-bound KRAS wild-type protein (P01116 whole entry): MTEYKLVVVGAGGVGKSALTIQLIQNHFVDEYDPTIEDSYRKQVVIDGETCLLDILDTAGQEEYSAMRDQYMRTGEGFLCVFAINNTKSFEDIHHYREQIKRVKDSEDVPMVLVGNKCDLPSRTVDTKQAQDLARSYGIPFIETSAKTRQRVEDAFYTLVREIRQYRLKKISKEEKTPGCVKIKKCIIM

[4] = target: GDP-bound HRAS wild-type protein (Homo sapiens, UniProt P01112); test: Binding to HRAS by surface plasmon resonance (SPR), Single Cycle Kinetics; conditions: ratio of KD for GDP-bound HRAS wild-type protein to KD for KRAS, SPR
Sequence of GDP-bound HRAS wild-type protein (P01112 whole entry): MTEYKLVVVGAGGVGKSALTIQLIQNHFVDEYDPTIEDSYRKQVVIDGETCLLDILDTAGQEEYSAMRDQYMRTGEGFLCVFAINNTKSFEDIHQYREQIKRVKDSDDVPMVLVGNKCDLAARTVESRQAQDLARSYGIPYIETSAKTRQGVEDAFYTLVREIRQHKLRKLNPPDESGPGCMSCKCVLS

Compound: CCC[C@H]1C(=O)N[C@@H]([C@@H](C)CC)C(=O)N(C)CC(=O)N(C)[C@H]2C/C=C\CCN(C2=O)[C@@H](Cc2ccc(C(F)(F)F)cc2)C(=O)N(C)CC(=O)N[C@@H](CCc2ccc(Cl)c(Cl)c2)C(=O)N2C[C@H](OCC)C[C@H]2C(=O)NC2(CC(C)(C)C2)C(=O)N(C)[C@@H](C2CCCC2)C(=O)N(C)[C@H](C(=O)N(C)C)CC(=O)N1C [PP1932]
- NRAS/KRAS (KD ratio) [1]: A (a compound having 10 or more and less than 20 is denoted as A)
- IC50 [2]: 13.1 nM
- Kd [3]: 0.15 nM
- HRAS/KRAS (KD ratio) [4]: A (a compound having 10 or more and less than 20 is denoted as A)

Compound: CCC[C@H]1C(=O)N[C@@H]([C@@H](C)CC)C(=O)N(C)CC(=O)N(C)[C@H]2C/C=C\CCN(C2=O)[C@@H](Cc2ccc(C(F)(F)F)cc2)C(=O)N(C)CC(=O)N[C@@H](CCc2cc(F)c(C(F)(F)F)c(F)c2)C(=O)N(C)[C@@H](C)C(=O)NC2(CC(C)(C)C2)C(=O)N(C)[C@@H](C2CCCC2)C(=O)N(C)[C@H](C(=O)N(C)C)CC(=O)N1C [PP1934]
- NRAS/KRAS (KD ratio) [1]: A (a compound having 10 or more and less than 20 is denoted as A)
- IC50 [2]: 68.5 nM
- Kd [3]: 0.72 nM
- HRAS/KRAS (KD ratio) [4]: A (a compound having 10 or more and less than 20 is denoted as A)

Compound: CC[C@H](C)[C@@H]1NC(=O)[C@H](CC)N(C)C(=O)C[C@@H](C(=O)N(C)C)N(C)C(=O)[C@H](C2CCCC2)N(C)C(=O)C2(CC(C)(C)C2)NC(=O)[C@H](CC)N(C)C(=O)[C@H](CCc2cc(F)c(C(F)(F)F)c(F)c2)NC(=O)CN(C)C(=O)[C@H](Cc2ccc(C(F)(F)F)cc2)N2CC/C=C\C[C@@H](C2=O)N(C)C(=O)CN(C)C1=O [PP1935]
- NRAS/KRAS (KD ratio) [1]: A (a compound having 10 or more and less than 20 is denoted as A)
- IC50 [2]: 13.1 nM
- Kd [3]: 0.46 nM
- HRAS/KRAS (KD ratio) [4]: A (a compound having 10 or more and less than 20 is denoted as A)

Compound: CCC[C@H]1C(=O)N[C@@H]([C@@H](C)CC)C(=O)N(C)CC(=O)N(C)[C@H]2C/C=C\CCN(C2=O)[C@@H](Cc2ccc(C(F)(F)F)cc2)C(=O)N(C)CC(=O)N[C@@H](CCc2cc(F)c(C(F)(F)F)c(F)c2)C(=O)N(C)[C@@H](COC)C(=O)NC2(CC(C)(C)C2)C(=O)N(C)[C@@H](C2CCCC2)C(=O)N(C)[C@H](C(=O)N(C)C)CC(=O)N1C [PP1936]
- NRAS/KRAS (KD ratio) [1]: AA (a compound having 20 or more is denoted as AA)
- IC50 [2]: 12.3 nM
- Kd [3]: 0.4 nM
- HRAS/KRAS (KD ratio) [4]: A (a compound having 10 or more and less than 20 is denoted as A)

Compound: CCC[C@H]1C(=O)N[C@@H]([C@@H](C)CC)C(=O)N(C)CC(=O)N(C)[C@H]2C/C=C\CCN(C2=O)[C@@H](Cc2ccc(C(F)(F)F)cc2)C(=O)N(C)CC(=O)N[C@@H](CCc2cc(F)c(C(F)(F)F)c(F)c2)C(=O)N2C[C@H](OCC)C[C@H]2C(=O)NC2(CC(C)(C)C2)C(=O)N(C)[C@@H]([C@@H](C)CC)C(=O)N(C)[C@H](C(=O)N(C)C)CC(=O)N1C [PP1941]
- NRAS/KRAS (KD ratio) [1]: A (a compound having 10 or more and less than 20 is denoted as A)
- IC50 [2]: 9.2 nM
- Kd [3]: 0.17 nM
- HRAS/KRAS (KD ratio) [4]: A (a compound having 10 or more and less than 20 is denoted as A)

Compound: CCO[C@@H]1C[C@H]2C(=O)NC3(CC(C)(C)C3)C(=O)N(C)[C@@H](C3CCCCC3)C(=O)N(C)[C@H](C(=O)N(C)C)CC(=O)N(C)[C@@H](CC)C(=O)N[C@@H]([C@@H](C)CC)C(=O)N(C)CC(=O)N(C)[C@H]3C/C=C\CCN(C3=O)[C@@H](Cc3ccc(C(F)(F)F)cc3)C(=O)N(C)CC(=O)N[C@@H](CCc3cc(F)c(C(F)(F)F)c(F)c3)C(=O)N2C1 [PP1942]
- NRAS/KRAS (KD ratio) [1]: AA (a compound having 20 or more is denoted as AA)
- IC50 [2]: 25.7 nM
- Kd [3]: 0.15 nM
- HRAS/KRAS (KD ratio) [4]: A (a compound having 10 or more and less than 20 is denoted as A)

Compound: CCC[C@H]1C(=O)N[C@@H]([C@@H](C)CC)C(=O)N(C)CC(=O)N(C)[C@H]2C/C=C\CCN(C2=O)[C@@H](Cc2ccc(C(F)(F)F)cc2)C(=O)N(C)CC(=O)N[C@@H](CCc2cc(F)c(C(F)(F)F)c(F)c2)C(=O)N2C[C@H](OCC)C[C@H]2C(=O)NC2(CC(C)(C)C2)C(=O)N(C)[C@@H](C2CCCC2)C(=O)N(C)[C@H](C(=O)N2CCC2)CC(=O)N1C [PP1943]
- NRAS/KRAS (KD ratio) [1]: A (a compound having 10 or more and less than 20 is denoted as A)
- IC50 [2]: 9.2 nM
- Kd [3]: 0.11 nM
- HRAS/KRAS (KD ratio) [4]: B (a compound having 3 or more and less than 10 is denoted as B)

Compound: CCO[C@@H]1C[C@H]2C(=O)NC3(CC(C)(C)C3)C(=O)N(C)[C@@H](C3CCCC3)C(=O)N(C)[C@H](C(=O)N3CCCC3)CC(=O)N(C)[C@@H](CC)C(=O)N[C@@H]([C@@H](C)CC)C(=O)N(C)CC(=O)N(C)[C@H]3C/C=C\CCN(C3=O)[C@@H](Cc3ccc(C(F)(F)F)cc3)C(=O)N(C)CC(=O)N[C@@H](CCc3cc(F)c(C(F)(F)F)c(F)c3)C(=O)N2C1 [PP1944]
- NRAS/KRAS (KD ratio) [1]: A (a compound having 10 or more and less than 20 is denoted as A)
- IC50 [2]: 14.8 nM
- Kd [3]: 0.19 nM
- HRAS/KRAS (KD ratio) [4]: A (a compound having 10 or more and less than 20 is denoted as A)

Compound: CCO[C@@H]1C[C@H]2C(=O)NC3(CC(C)(C)C3)C(=O)N(C)[C@@H](C3CCCC3)C(=O)N(C)[C@H](C(=O)N3CCCCC3)CC(=O)N(C)[C@@H](CC)C(=O)N[C@@H]([C@@H](C)CC)C(=O)N(C)CC(=O)N(C)[C@H]3C/C=C\CCN(C3=O)[C@@H](Cc3ccc(C(F)(F)F)cc3)C(=O)N(C)CC(=O)N[C@@H](CCc3cc(F)c(C(F)(F)F)c(F)c3)C(=O)N2C1 [PP1945]
- NRAS/KRAS (KD ratio) [1]: AA (a compound having 20 or more is denoted as AA)
- IC50 [2]: 33.8 nM
- Kd [3]: 0.31 nM
- HRAS/KRAS (KD ratio) [4]: A (a compound having 10 or more and less than 20 is denoted as A)

Compound: CCCN1C(=O)CN(C)C(=O)CN(C)C(=O)[C@H]([C@@H](C)CC)NC(=O)[C@H](CC(C)C)N(CC)C(=O)C[C@@H](C(=O)N2CCOCC2)N(C)C(=O)[C@H](C2CCCC2)N(C)C(=O)C2(CCC2)NC(=O)[C@@H]2CCCN2C(=O)[C@H](CCc2ccc(C(F)(F)F)c(Cl)c2)NC(=O)CN(C)C(=O)[C@@H]1Cc1ccc(C(F)(F)F)cc1 [PP1946] ([NEtLeu]I[Sar][Sar][NPrPhe(4-CF3)][Sar][hPhe(3-Cl-4-CF3)]P[Ac4c][NMeGly(cPent)][NMeD]-Morpholide; lactam N-11)
- NRAS/KRAS (KD ratio) [1]: B (a compound having 3 or more and less than 10 is denoted as B)
- IC50 [2]: 15.2 nM
- Kd [3]: 0.16 nM
- HRAS/KRAS (KD ratio) [4]: C (A compound having a KD ratio of 0.1 or more and less than 3 is denoted as C)

Compound: CCC[C@H]1C(=O)N[C@@H]([C@@H](C)CC)C(=O)N(CCC)CC(=O)N(C)CC(=O)N(CCC)[C@@H](Cc2ccc(C(F)(F)F)cc2)C(=O)N(C)CC(=O)N[C@@H](CCc2ccc(C(F)(F)F)c(Cl)c2)C(=O)N2CCC[C@H]2C(=O)NC2(CCC2)C(=O)N(C)[C@@H](C2CCCC2)C(=O)N(C)[C@H](C(=O)N2CCOCC2)CC(=O)N1C [PP1947] ([NMeNva]I[NPrGly][Sar][NPrPhe(4-CF3)][Sar][hPhe(3-Cl-4-CF3)]P[Ac4c][NMeGly(cPent)][NMeD]-Morpholide; lactam N-11)
- NRAS/KRAS (KD ratio) [1]: B (a compound having 3 or more and less than 10 is denoted as B)
- IC50 [2]: 22 nM
- Kd [3]: 0.37 nM
- HRAS/KRAS (KD ratio) [4]: B (a compound having 3 or more and less than 10 is denoted as B)

Compound: CCCN1C(=O)CN(C)C(=O)CN(C)C(=O)[C@H]([C@@H](C)CC)NC(=O)[C@H](CC(C)C)N(C)C(=O)C[C@@H](C(=O)N2CCOCC2)N(C)C(=O)[C@H](C2CCCC2)N(C)C(=O)C2(CCC2)NC(=O)[C@@H]2CCCN2C(=O)[C@H](CCc2ccc(C(F)(F)F)c(Cl)c2)NC(=O)CN(CC)C(=O)[C@@H]1Cc1ccc(C(F)(F)F)cc1 [PP1950] ([NMeL]I[Sar][Sar][NPrPhe(4-CF3)][NEtG][hPhe(3-Cl-4-CF3)]P[Ac4c][NMeGly(cPent)][NMeD]-Morpholide; lactam N-11)
- NRAS/KRAS (KD ratio) [1]: B (a compound having 3 or more and less than 10 is denoted as B)
- IC50 [2]: 32.5 nM
- Kd [3]: 1.9 nM
- HRAS/KRAS (KD ratio) [4]: C (A compound having a KD ratio of 0.1 or more and less than 3 is denoted as C)

Compound: CCCN1C(=O)CN(C)C(=O)CN(C)C(=O)[C@H]([C@@H](C)CC)NC(=O)[C@H](CC(C)C)N(C)C(=O)C[C@@H](C(=O)N2CCOCC2)N(C)C(=O)[C@H](C2CCCC2)N(CC)C(=O)C2(CCC2)NC(=O)[C@@H]2CCCN2C(=O)[C@H](CCc2ccc(C(F)(F)F)c(Cl)c2)NC(=O)CN(C)C(=O)[C@@H]1Cc1ccc(C(F)(F)F)cc1 [PP1952] ([NMeL]I[Sar][Sar][NPrPhe(4-CF3)][Sar][hPhe(3-Cl-4-CF3)]P[Ac4c][X7][NMeD]-Morpholide; lactam N-11)
- NRAS/KRAS (KD ratio) [1]: B (a compound having 3 or more and less than 10 is denoted as B)
- IC50 [2]: 14 nM
- Kd [3]: 0.13 nM
- HRAS/KRAS (KD ratio) [4]: B (a compound having 3 or more and less than 10 is denoted as B)
